Results taken from patent publication US9174991B2, “Crystalline form of pemetrexed disodium” (Azad Pharmaceutical Ingredients AG, priority 2009, dated 2015).
Counter-ions that a name gives are not always drawn. Like-named read-outs stand apart in the source and are kept apart here.

Legend:
[1] = 70° C., 5 mbar
Protocol: To investigate the stability of the different forms of Pemetrexed Disodium a stability test concerning storage at different relative humidity, storage in the presence of light and stability under drying conditions was carried out.
Four samples were stored at 70° 5 mbar in laboratory vacuum oven. IPC were taken after 2 d, 9 d
HPLC analysis was done on an Agilent 1100 system equipped with DAD detector using a Zorbax SB-Phenyl column (150×4.6 mm, 3 μm). Measurements were done at 230 nm wavelengths at 25° C. using a flow of 1.0 mL/min and 8 min post-run time. […] Sample preparation: 10 mg sample in 25 mL water:ACN=1:1, 5 uL injection.

[2] = starting material, before storage
Protocol: HPLC analysis was done on an Agilent 1100 system equipped with DAD detector using a Zorbax SB-Phenyl column (150×4.6 mm, 3 μm). Measurements were done at 230 nm wavelengths at 25° C. using a flow of 1.0 mL/min and 8 min post-run time. As mobile phase water containing 0.03% TFA and acetonitrile containing 0.025% TFA were used, solvents were HPLC grade. Sample preparation: 10 mg sample in 25 mL water:ACN=1:1, 5 uL injection. Retention time Pemetrexed Disodium: 10.3 min.
PXRD: Routine PXRD measurements were carried out on a Bruker AXS D8Advance diffractometer equipped with CuKα source with CuKβ filter and a VANTEC detector (Ser. No.: 202964). Measurement parameters: 3° 2theta to 39.9° 2theta, step time: 2s, step size: 0.022°, T=25° C., X-ray generator: 35 kV/40 mA.

[3] = not given; remark: listed apart in the source
[4] = Barnett et al., Organic Process Research & Development, 1999, 3, 184-188; cited from earlier work
[5] = 2 d, listed as Pemetrexed Disodium Heptahydrate
[6] = 5% to 12% relative humidity, dark, air, 2 d, measured 11.7% (Form A 5.8%), 23° C.
[7] = 27% to 33% relative humidity, dark, air, 16 d, measured 30.4% (Form A 28.7%), 24° C.
[8] = 39% to 50% relative humidity, dark, air, 5 d, measured 42.8% (Form A 38.6%), 24° C.
[9] = 39% to 50% relative humidity, dark, air, 9 d, measured 48% (Form A 47%), 24° C.
[10] = 39% to 50% relative humidity, dark, air, 16 d, measured 47.3% (Form A 46.4%), 24° C.
[11] = 60% to 70% relative humidity, dark, air, 5 d, measured 63% (Form A 57%), 24° C.
[12] = 60% to 70% relative humidity, dark, air, 9 d, measured 69% (Form A 68%), 24° C.
[13] = 60% to 70% relative humidity, dark, air, 16 d, measured 66.9% (Form A 67.2%), 24° C.

In the case of `Nc1nc(O)c2c(CCc3ccc(C(=O)N[C@@H](CCC(=O)O)C(=O)O)cc3)c[nH]c2n1` [Heptahydrate, disodium N-[4-[2-(2-amino-4,7-dihydro-4-oxo-3H-pyrrolo[2,3-d]-pyrimidin-5-yl)ethyl]benzoyl]-L-glutamic acid salt], the “HPLC-purity (10.5 min)” value ([1]; 2 d) is reported as 99.86%, the PXRD ([1]; 2 d) is reported as 2.5 hydrate and the “H2O (KFT)” value [1, 5] is reported as 8.4%. For the same compound, the PXRD [1, 5] was “only 2.5 hydrate”, the “HPLC-purity (10.5 min)” value ([1]; 9 d) was 99.80% and the “change in HPLC-purity upon vacuum drying (in words)” value ([1]; up to 9 d, listed as Pemetrexed Disodium Heptahydrate) was “No significant change”. The “HPLC-purity (10.5 min)” value [2] was 99.90%, the “H2O (KFT)” value [6] was 19.7% and the “HPLC-purity (10.5 min)” value [6] was 99.70%. The “HPLC-purity (10.5 min)” value (5% to 12% relative humidity, dark, air, 5 d, measured 9.5% (Form A 5.3%), 24° C.) was 99.73%, the “HPLC-purity (10.5 min)” value (5% to 12% relative humidity, dark, air, 9 d, measured 9% (Form A 6%), 24° C.) was 99.86% and the HPLC-purity (5% to 12% relative humidity, dark, air, 16 d, measured 8.5% (Form A 5.8%), 24° C.) was 99.88%. The PXRD (5% to 12% relative humidity, dark, air, 16 d, measured 8.5% (Form A 5.8%), 24° C., listed as Pemetrexed Disodium Heptahydrate) was “almost complete transformation to Pemetrexed Disodium 2.5 hydrate”, the HPLC-purity (27% to 33% relative humidity, dark, air, 2 d, measured 29.8% (Form A 28%), 23° C.) was 99.74% and the HPLC-purity (27% to 33% relative humidity, dark, air, 5 d, measured 29% (Form A 27%), 24° C.) was 99.62%. The HPLC-purity (27% to 33% relative humidity, dark, air, 9 d, measured 31% (Form A 30%), 24° C.) was 99.84%, the HPLC-purity [7] was 99.91% and the PXRD [7] was “Heptahydrate”. The HPLC-purity (39% to 50% relative humidity, dark, air, 2 d, measured 41.1% (Form A 39%), 23° C.) was 99.84%, the HPLC-purity [8] was 99.78% and the PXRD [8] was “Heptahydrate”. For the same compound, the HPLC-purity [9] was 99.81%, the PXRD [9] was “Heptahydrate” and the HPLC-purity [10] was 99.91%. For the same compound, the PXRD [10] was “Heptahydrate”, the HPLC-purity (60% to 70% relative humidity, dark, air, 2 d, measured 61%, 22° C. (Form A 54%, 23° C)) was 99.63% and the HPLC-purity [11] was 99.81%. The PXRD [11] was “Heptahydrate”, the HPLC-purity [12] was 99.81% and the PXRD [12] was “Heptahydrate”. The HPLC-purity [13] was 99.90%, the PXRD [13] was “Heptahydrate” and the “change in HPLC purity in any of the samples (in words)” value (all relative humidities tested (5% to 70%), up to 16 d) was “No significant change”. For the same compound, the HPLC-purity ([3]; daylight study, Start) was 99.63%, the “change in HPLC purity in the presence of light (in words)” value ([3]; daylight, text says after 16 d) was “do not show significant changes” and the “change in color in the presence of light (in words)” value ([3]; daylight, text says after 16 d) was “do not show significant changes”. It also gave an HPLC-purity ([3]; double PE plastic bags, daylight, 20° C. to 25° C., 15 d) of 99.65%.

In the case of `Nc1nc(O)c2c(CCc3ccc(C(=O)N[C@@H](CCC(=O)O)C(=O)O)cc3)c[nH]c2n1` [disodium salt II, disodium N-[4-[2-(2-amino-4,7-dihydro-4-oxo-3H-pyrrolo[2,3-d]-pyrimidin-5-yl)ethyl]benzoyl]-L-glutamic acid salt], the “hygroscopicity (in words)” value [4] is given as “hygroscopic solid”.
